“And” between values parts separate entries of the source, which are not always exact repeats. Equal entries are not always repeated.
Experiments:
mouse sperm [1] = test: Flagellar beat frequency of tethered mouse sperm; format: cell-based
Description: An inverted dark-field video microscope (IX73; Olympus) with a 10 x objective (mouse sperm) or a 20 x objective (human sperm) (UPLSAPO, NA 0.8; Olympus) was combined with a high-speed camera (ORCA Fusion; Hamamatsu). Dark-field videos were recorded with a frame rate of 200 Hz. The temperature of the heated stage was set to 37 °C (stage top incubator WSKMX; TOKAI HIT). The images were preprocessed with the ImageJ plugin SpermQ Preparator (Gaussian blur with sigma 0.5 px; subtract background method with radius 5 px) and analyzed using the ImageJ plugin SpermQ[57]. The beat frequency was determined from the highest peak in the frequency spectrum of the curvature time course, obtained by Fast Fourier Transform.

mouse sperm [2] = test: cAMP generation in mouse sperm in vitro, incl. wash-out by dilution; conditions: 12 minutes
Description: For capacitation, sperm were incubated for 90 min in TYH containing 3 mg/ml BSA and 25 mM NaHCO3 in a 37 °C incubator. To control for the consequences of dilution during isolation of epididymal mouse sperm for ex vivo assays, we assessed the ability of bicarbonate to induce a prototypical pattern of tyrosine phosphorylation (pY) which is a widely used molecular hallmark of capacitation[53]. Bicarbonate-induced pY is known to be sAC dependent in vitro[20],[22],[35]. For experiments studying sperm from injected mice, ‘swim out’ was performed in 200 μl TYH, which corresponded to a 1:10 dilution from epididymis (20 μg cauda in 200 μl buffer). Capacitation-induced changes were assessed by adding 50 µl of ‘swim out’ sperm to increasing volumes of capacitating TYH buffer.
cAMP generation was measured in mouse and human sperm. […] For human sperm, aliquots of 2 × 10^6 cells were incubated for 30 min in the presence or absence of sAC inhibitor in non-capacitating or capacitating HTF buffer. In both cases, 0.1% DMSO was used as vehicle control.
After 5 min, 150 µl of sperm/inhibitor mix was diluted into 1.35 ml non-capacitating or capacitating media with no inhibitor. […] Sperm lysates were centrifuged at 2000 × g for 3 min and the cAMP in the supernatant was acetylated and quantified using the Direct cAMP ELISA kit (Enzo).

epididymal mouse sperm [3] = test: Ex vivo motility (CASA) of epididymal sperm from inhibitor-treated male mice; format: in vivo; parameters: hyperactivated motility (%): concentration or dose not given beside the values
Description: Sperm movements of 10 fields of at least 200 sperm were examined using computer-assisted sperm analysis (CASA) via Hamilton–Thorne digital image analyzer (IVOS II, Hamilton Thorne Research, Beverly, MA) with the following parameters: 30 frames, frame rate: 60 Hz, cell size: 30–170 μm^2. Ejaculated uterine mouse sperm were recorded without additional dilution. Sperm were considered motile when presenting STR ≥80% and VAP ≥50 μm/s and hyperactivated when presenting VCL ≥270 μm/s, LIN < 50%, and ALH ≥7 μm. Track´s color code: motile (green), progressive (turquoise), hyperactivated (purple), slow (pink), static (red), not counted due to late entry (yellow).

epididymal mouse sperm [4] = test: Tyrosine phosphorylation (pY) Western blot of sperm from injected mice; conditions: 50 mg/kg i.p., 1 hour
Description: For capacitation, sperm were incubated for 90 min in TYH containing 3 mg/ml BSA and 25 mM NaHCO3 in a 37 °C incubator. To control for the consequences of dilution during isolation of epididymal mouse sperm for ex vivo assays, we assessed the ability of bicarbonate to induce a prototypical pattern of tyrosine phosphorylation (pY) which is a widely used molecular hallmark of capacitation[53]. […] For experiments studying sperm from injected mice, ‘swim out’ was performed in 200 μl TYH, which corresponded to a 1:10 dilution from epididymis (20 μg cauda in 200 μl buffer). Capacitation-induced changes were assessed by adding 50 µl of ‘swim out’ sperm to increasing volumes of capacitating TYH buffer.
Mouse sperm from vehicle- or inhibitor-injected mice were isolated 1 hour post injection from male mice injected (i.p.) with 150 µl of solution containing sAC inhibitor or vehicle. ‘Swim out’ sperm were diluted 1:1 to 1:100 in capacitating TYH media. As control, sperm from vehicle-injected mice were diluted 1:100 in non-capacitating and capacitating TYH buffer. The samples were incubated for 90 min, washed with 1 ml PBS and sedimented by centrifugation at 2000 × g for 3 min. The sedimented sperm were resuspended in 15 μl 2× Laemmli sample buffer, heated for 5 min at 95 °C, supplemented with 8 µl β-mercaptoethanol and heated again for 5 min at 95 °C. For Western blot analysis, proteins were transferred onto PVDF membranes (Thermo Scientific), probed with anti-phosphotyrosine (1:1000, clone 4G10, Merck Millipore) and anti-mouse IgG (1:10,000, Cell Signaling Technology) antibodies, and analyzed using a chemiluminescence detection system. Image lab (Bio-Rad) was used for densitometric analysis of western blots.

[5] = target: T1, immobilized human sAC protein (Homo sapiens, UniProt Q96PN6); test: Surface plasmon resonance binding kinetics;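 note: Reference-channel response subtracted from active-channel response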; conditions: Fig. 1f
T1 construct: recombinant purified His-tagged sACt protein (50 μg/ml)
T1 sequence (Q96PN6 1-469 limits assumed): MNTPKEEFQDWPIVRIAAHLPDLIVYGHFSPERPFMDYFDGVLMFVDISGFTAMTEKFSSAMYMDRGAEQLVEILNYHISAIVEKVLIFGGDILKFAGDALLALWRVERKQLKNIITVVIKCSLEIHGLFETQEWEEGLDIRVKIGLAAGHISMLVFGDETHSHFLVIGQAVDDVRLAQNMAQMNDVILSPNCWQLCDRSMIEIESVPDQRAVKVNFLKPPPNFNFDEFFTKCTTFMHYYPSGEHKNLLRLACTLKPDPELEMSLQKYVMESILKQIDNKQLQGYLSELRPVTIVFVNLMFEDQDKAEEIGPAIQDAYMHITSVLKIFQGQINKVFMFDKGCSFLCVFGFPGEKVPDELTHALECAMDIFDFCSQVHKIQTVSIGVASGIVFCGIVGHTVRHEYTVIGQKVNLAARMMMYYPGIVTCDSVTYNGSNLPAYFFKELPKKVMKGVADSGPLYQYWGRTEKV
Description: Association and dissociation rate constants of sAC inhibitors were obtained with a Biacore 8K instrument (Cytiva) using a parallel kinetics protocol. Series S Sensor NTA chips (Cytiva) were prepared by applying recombinant purified His-tagged sACt protein (50 μg/ml) in PBS-P+ buffer (1 mM KH2PO4, 150 mM NaCl, 6 mM Na2HPO4, 0.05% (w/v) P20 Surfactant). The His-tagged sAC protein was captured via Ni^2+-His-tag chelation and covalently immobilized by amine coupling with a 1:1 mixture of 1-ethyl-3-(3-dimethylaminopropyl) carbodiimide and N-hydroxysuccinimide (active channels). After coupling, remaining reactive groups on the chip’s surface were blocked with 1 M ethanolamine followed by 350 mM EDTA to wash away any free Ni^2+. Following preparation, TBS-P+ running buffer (50 mM Tris, 150 mM NaCl, and 0.05% P20 Surfactant) supplemented with 1% DMSO was flowed over the surface of the chip until a stable baseline was obtained. For each sAC inhibitor, which were dissolved in DMSO and diluted in running buffer, increasing concentrations were injected into parallel channels for 120 s at a flow rate of 50 µl/min followed by running buffer for 600 s to allow for dissociation. All experiments included reference channels; i.e., inhibitor run over parallel channels without immobilized protein. […] Curves were fitted, and kon, KD, and koff values were determined using the Biacore 8K Insight Evaluation Software Version 2.0 (Cytiva) and a 1:1 binding kinetics model.

human sperm = test: Acrosome reaction assay, human sperm, progesterone-evoked; format: cell-based
Description: Acrosome reaction was induced by incubating mouse sperm with 50 mouse solubilized zonae pellucidae for 15 min at 37 °C. Human sperm were incubated with 10 μM progesterone for 30 min at 37 °C. […] Samples were air-dried on microscope slides and fixed for 30 minutes in 100% ethanol at room temperature (RT). For acrosome staining, mouse and human sperm were incubated for 30 min in the dark with 5 μg/ml PNA-FITC or 5 μg/ml PSA-FITC, respectively, and counterstained with 2 μg/ml DAPI. After curing, slides were analyzed using a Zeiss LSM 880 Laser Scanning Confocal Microscope; images were captured with two photomultiplier and one Gallium Arsenide Phosphide detector using ZEN Imaging software. For each condition, at least 600 cells were analyzed using ImageJ 1.52.

[6] = sheet Fig. 2a replicates, 5 μM TDI-10229 or 10 nM TDI-11861 present
[7] = sheet Fig. 2b replicates, 5 min preincubation in 5 μM TDI-10229 or 10 nM TDI-11861, diluted 1:100 into inhibitor-free media

Nc1nc(Cl)cc(-c2nn(C(F)F)cc2Cc2ccccc2OCCN2CCOC[C@@H]2CO)n1 [TDI-11861]
Beat frequency, Basal (mouse sperm [1]; distal 10 μm of flagellum, 5 μM TDI-10229 or 10 nM TDI-11861, mean ± SEM): 14.8 ± 1.0 Hz | Beat frequency, + HCO3- (mouse sperm [1]; distal 10 μm, 25 mM NaHCO3, 5 μM TDI-10229 or 10 nM TDI-11861, mean ± SEM): 22.7 ± 1.6 Hz | cAMP, capacitation media (mouse sperm [2]; [6]): 0.4536 pmol/10^6 sperm and 0.2982 pmol/10^6 sperm and 0.3279 pmol/10^6 sperm and 0.1875 pmol/10^6 sperm and 0.4476 pmol/10^6 sperm and 0.4575 pmol/10^6 sperm and 0.7152 pmol/10^6 sperm and 0.6672 pmol/10^6 sperm and 0.4645 pmol/10^6 sperm and 0.4351 pmol/10^6 sperm and 0.0606 pmol/10^6 sperm and 0.2667 pmol/10^6 sperm | cAMP, non-capacitation media (mouse sperm [2]; [6]): 1 pmol/10^6 sperm and 0.8029 pmol/10^6 sperm and 0.2251 pmol/10^6 sperm and 0.2037 pmol/10^6 sperm and 0.6722 pmol/10^6 sperm and 0.7415 pmol/10^6 sperm and 0.6566 pmol/10^6 sperm and 0.7427 pmol/10^6 sperm and 0.4253 pmol/10^6 sperm and 0.8706 pmol/10^6 sperm and 0.1092 pmol/10^6 sperm and 0.7462 pmol/10^6 sperm | cAMP, capacitation media (mouse sperm [2]; [7]): 0.677 pmol/10^6 sperm and 1.0488 pmol/10^6 sperm and 0.28 pmol/10^6 sperm and 0.63 pmol/10^6 sperm and 0.972 pmol/10^6 sperm and 0.1159 pmol/10^6 sperm and 0.3305 pmol/10^6 sperm and 0.9745 pmol/10^6 sperm and 1.058 pmol/10^6 sperm | cAMP, non-capacitation media (mouse sperm [2]; [7]): 0.555 pmol/10^6 sperm and 1.0234 pmol/10^6 sperm (2×) and 0.88 pmol/10^6 sperm and 0.438 pmol/10^6 sperm and 0.1502 pmol/10^6 sperm and 1.06 pmol/10^6 sperm and 0.8915 pmol/10^6 sperm and 1.0835 pmol/10^6 sperm | earliest time of motility inhibition post i.p.-injection (epididymal mouse sperm [3]; 50 mg/kg i.p.): 15 min | recovery of sperm motility (epididymal mouse sperm [3]; 50 mg/kg i.p., 24 hours post-injection): most sperm from TDI-11861-injected mice had recovered motility | motility of epididymal sperm diluted ex vivo (epididymal mouse sperm [3]; 50 mg/kg oral): essentially immotile | motility (%) (epididymal mouse sperm [3]; Fig. 3b replicates, 50 mg/kg oral gavage, 1 hour, diluted 1:100 in inhibitor-free non-capacitating media, CASA, 50 mg/kg): 2.8% and 0.5% and 0.3% and 0.7% and 1.7% and 1.9% and 3.3% and 1.6% and 3.6% and 3.8% and 1.1% | motility (%), + cAMP (epididymal mouse sperm [3]; Fig. 3b replicates, 50 mg/kg oral gavage, 1 hour, in presence of 5 mM db-cAMP/500 μM IBMX, 50 mg/kg): 10.8% and 22.6% and 32.3% and 13.1% and 19.4% and 14.6% and 14% and 11.2% | progressive motility (%) (epididymal mouse sperm [3]; Fig. 4b, epididymal sperm): 0.9% and 1.3% and 2.1% and 0.4% and 1.5% and 0.8% and 0.3% | hyperactivated motility (%) (epididymal mouse sperm [3]; Fig. 4c, epididymal sperm): 0.8% and 0.4% and 1.6% and 0.2% and 0.1% and 0.6% and 0.3% | motility (%) (epididymal mouse sperm [3]; Fig. 5, time 0.25 h): 0.4% and 0.6% and 0.8% and 0.3% and 0.7% and 1.3% and 1% | motility (%) (epididymal mouse sperm [3]; Fig. 5, time 0.5 h): 3.4% and 0.5% and 1.4% and 4.6% and 1.7% and 0.9% | motility (%) (epididymal mouse sperm [3]; Fig. 5, time 2 h): 1.1% and 1.7% and 1.2% and 0.7% and 2.3% and 2.7% | motility (%) (epididymal mouse sperm [3]; Fig. 5, time 2.5 h): 0.8% and 6.3% and 0.7% and 1.3% and 0.9% and 0.4% | motility (%) (epididymal mouse sperm [3]; Fig. 5, time 3 h): 1.2% and 0.4% and 6.5% and 6.2% and 3.7% | motility (%) (epididymal mouse sperm [3]; Fig. 5, time 24 h): 22.8% and 19.1% and 22% and 33.1% and 20.5% and 20.6% | motility (%) (epididymal mouse sperm [3]; Fig. 3d, + cAMP, individual replicates): 17.3% and 12.5% and 13.3% and 33% and 16.6% and 14.6% | motility (%) (epididymal mouse sperm [3]; Fig. 3d, individual replicates): 3% and 0.6% and 2% (2×) and 1.9% and 3.8% and 2.2% and 2.3% and 1.4% and 0.9% (2×) and 2.5% and 0.4% and 0.2% and 1.1% and 2.8% | capacitation-induced pY pattern (epididymal mouse sperm [4]; diluted 100 fold): remained blocked | capacitation-induced pY pattern (epididymal mouse sperm [4]; swim out sperm mixed with equal volume capacitation media): blocked | SPR sensorgram response ([5]; 4 nM, Time 1.8 s): 0.8425 | SPR sensorgram response ([5]; 4 nM, Time 1.9 s): 0.8424 | SPR sensorgram response ([5]; 4 nM, Time 2 s): 0.8404 | SPR sensorgram response ([5]; 12.3 nM, Time 1.8 s): 0.7083 | SPR sensorgram response ([5]; 12.3 nM, Time 1.9 s): 0.7083 | SPR sensorgram response ([5]; 12.3 nM, Time 2 s): 0.7083 | SPR sensorgram response ([5]; 37 nM, Time 1.8 s): 0.4389 | SPR sensorgram response ([5]; 37 nM, Time 1.9 s): 0.4389 | SPR sensorgram response ([5]; 37 nM, Time 2 s): 0.4389 | SPR sensorgram response ([5]; 111 nM, Time 1.8 s): 1.6715 | SPR sensorgram response ([5]; 111 nM, Time 1.9 s): 1.6715 | SPR sensorgram response ([5]; 111 nM, Time 2 s): 1.5453 | SPR sensorgram response ([5]; 333 nM, Time 1.8 s): 3.2073 | SPR sensorgram response ([5]; 333 nM, Time 1.9 s): 3.4899 | SPR sensorgram response ([5]; 333 nM, Time 2 s): 3.8103 | toxicity to sperm (rescue of acrosome response by cAMP/IBMX) (human sperm): not toxic to sperm | Acrosome reacted (%), Prog (human sperm; Fig. 2h replicates, 10 μM progesterone, 5 μM TDI-10229 or 10 nM TDI-11861): 11.2728% and 11.1787% and 11.2041% and 9.266% and 10.4762% and 13.6206% | Acrosome reacted (%), Prog + db-cAMP/IBMX (human sperm; Fig. 2h replicates, 10 μM progesterone, 5 mM db-cAMP/500 μM IBMX, 5 μM TDI-10229 or 10 nM TDI-11861): 28.3207% and 19.1712% and 18.125% and 29.0658% and 24.3412% and 18.4673% | Acrosome reacted (%), basal + db-cAMP/IBMX (human sperm; Fig. 2h replicates, 5 mM db-cAMP/500 μM IBMX, 5 μM TDI-10229 or 10 nM TDI-11861): 16.1667% and 6.667% and 10.5% and 10.6667% and 19.1045% and 11.7728% | Acrosome reacted (%), basal (human sperm; Fig. 2h replicates, 180 min capacitating media, 5 μM TDI-10229 or 10 nM TDI-11861): 12.5473% and 10% and 15.2336% and 15.1667% and 10.3704% and 13.6209%
